# Measured values taken from patent US10138235B2, “Pyrazolopyridine derivatives, preparation process therefor and therapeutic use thereof” (SANOFI, priority 2011, dated 2018).
# Key:
# [1] = tested on: HUVEC cells stimulated with FGF-2; experiment: In vitro angiogenesis of HUVEC cells induced with FGF-2 (length of pseudotubules); assay type: cell-based, human; settings: concentration at which active on FGF-2-induced angiogenesis of HUVEC cells, evaluated from 0.03 nM to 300 nM; for minimal effective concentration: Homo sapiens, 24 h
# Method: To do this, matrices composed of matrigel (growth factor reduced matrigel, Becton Dickinson 356230) and of collagen (rat tail collagen type I, Becton Dickinson 354236) are deposited in an amount of 160 μl into each chamberslide well (Biocoat Cellware collagen, Type I, 8-well culturesides: Becton dickinson 354630), or 60 μl per well of 96-plate wells (Biocoat collagenl cellware, Becton Dickinson 354407). The matrix is prepared by mixing ⅓ of matrigel, 1 mg/ml final of collagen, 0.1N NaOH (0.026× the volume of collagen in μl), PBS 1×, and the volume is then adjusted with water. The gels are kept for 1 hour at 37° C. to allow their polymerization. Next, the human venous endothelial cells (HUVEC ref.: C-12200—Promocell) were seeded at 15×10^3 or 6×10^3 cells/well in 400 or 120 μl (for the 8-well or 96-well plates, respectively) of EBM medium (Clonetics C3121)+2% FBS+hEGF 10 μg/ml. They are stimulated with 1 or 3 ng/ml of FGF-2 (R&D system, 133-FB-025; Invitrogen, PHG0026) for 24 hours at 37° C. in the presence of 5% CO2. After 24 hours, the length of the network of microtubules formed is measured by means of the computer-assisted image analysis system (Imagenia Biocom, Courtaboeuf, France) and the total length of the pseudotubules in each well is determined. The mean total length of the microcapillary network is calculated in μm for each condition corresponding to the mean on 6 replicates
# Stimulation with FGF-2 allows induction of the formation of new tubules. An FGF-R antagonist is considered as being active in this test if it is capable of partially inhibiting this angiogenesis at a dose of less than or equal to 300 nM.
# In this experiment, the molecules are evaluated from 0.03 nM to 300 nM depending on the molecule with regard to induction of the angiogenesis of human HUVEC cells with FGF-2. Compounds 38 (Example 2), 46 (Example 1), 53 (Example 3), 56 (Example 4), 57 (Example 6), 61 (Example 5), 75 (Example 12), 83 (Example 13), 88 (Example 8), 91 (Example 15), 93 (Example 14), 106 (Example 11), 108 (Example 7) and 114 (Example 9) are active since they have inhibitory activity on the formation of pseudotubules of greater than or equal to 20% at a dose of less than or equal to 300 nM (FIG. 1). In the following table, A=active for a concentration<1 nM, B=active at a concentration of 1 nM, C=active at a concentration of 3 nM, D=active at a concentration of 10 nM, E=active at a concentration of 30 nM, and F=active at a concentration of 300 nM.
# [2] = tested on: inflammatory angiogenesis in mice; experiment: Model of inflammatory angiogenesis in mice (air pocket granuloma); assay type: in vivo; settings: 30 mg/kg, after one week of treatment
# Method: The model described by Colville-N H et al. in 1995 makes it possible to study pharmacological agents that are capable of modulating the appearance of angiogenesis in an inflammatory context. The model is developed on female OF1 mice (Charles River laboratories) weighing about 25 g, and per group of 12. The animals are anaesthetized intraperitoneally with pentobarbital sodium (60 mg/kg; Sanofi Nutrition Santé Animale). An air pocket is created on the mouse's back by injecting 3 ml of air subcutaneously. After waking up, the animals receive a treatment in general by gavage and receive an injection of 0.5 ml of Freud's adjuvant (Sigma) with 0.1% croton oil (Sigma) into the pocket. Seven days later, the mice are again anaesthetized and placed on a hotplate at 40° C. 1 ml of carmine red (Aldrich Chemicals, 5% in 10% of gelatin) is injected into the caudal vein. The animals are then placed at 4° C. for 2-3 hours. The skins are then removed and dried for 24 hours in an oven at 56° C. […] The filtrates are read in a spectrophotometer at 492 nm against a calibration range of carmine red. […] The results are expressed as mean values (±sem). […]
# The FGF-R antagonists are evaluated between 1 and 50 mg/kg using methylcellulose/Tween (0.6% v/v) as vehicle or any other vehicle that enables dissolution of the active principle. […]
SMILES,melting point [°C],minimal effective concentration [1] [µM],Activity [1],weight of granuloma (dry weight of the skin) [2]
"Cn1cc2c(C(F)F)cc(-c3ccc(N)c(C#N)c3)nc2n1 [Compound 106, 2-Amino-5-[4-(difluoromethyl)-2-methyl-2H-pyrazolo[3,4-b]pyridin-6-yl]benzonitrile]",,< 0.001,,
"Cn1nc(-c2ccccc2)c2c(C(F)(F)F)cc(-c3ccc(N)c(C#N)c3)nc21 [Compound 57, 2-Amino-5-[1-methyl-3-phenyl-4-(trifluoromethyl)-1H-pyrazolo[3,4-b]pyridin-6-yl]benzonitrile]",269,0.003,,
"O=C(O)c1cc(-c2cc(C(F)(F)F)c3c(-c4ccccc4)n[nH]c3n2)ccc1F [Compound 56, 2-Fluoro-5-[3-phenyl-4-(trifluoromethyl)-1H-pyrazolo[3,4-b]pyridin-6-yl]benzoic acid]",,< 0.001,,
"O=C(O)c1cc(-c2cc(C(F)F)c3c(-c4ccccc4)n[nH]c3n2)ccc1F [Compound 53, 5-[4-(Difluoromethyl)-3-phenyl-1H-pyrazolo[3,4-b]pyridin-6-yl)-2-fluorobenzoic acid]",,< 0.001,,
"COc1cc(-c2cc(C(=O)O)c3cn[nH]c3n2)ccc1N [Compound 38, 6-(4-Amino-3-methoxyphenyl)-1H-pyrazolo[3,4-b]pyridine-4-carboxylic acid]",,0.003,,
Cn1nc(-c2cccnc2)c2c(C(F)(F)F)cc(-c3cccc(CN4CCOCC4)c3)nc21 [Compound 93],,,F (F=active at a concentration of 300 nM),
CN(C)CCn1ncc2c(C(F)F)cc(-c3ccc(N)c(C#N)c3)nc21 [Compound 83],,,D (D=active at a concentration of 10 nM),
"NC(=O)c1cc(-c2ccc(F)c(C(=O)O)c2)nc2[nH]nc(-c3ccccc3)c12 [Compound 46, 5-(4-Carbamoyl-3-phenyl-1H-pyrazolo[3,4-b]pyridin-6-yl)-2-fluorobenzoic acid]",,< 0.001,,significantly reduces

# Now from value to compound, other results behind:
melting point [°C],SMILES,minimal effective concentration [1] [µM],Activity [1],weight of granuloma (dry weight of the skin) [2]
263,"N#Cc1cc(-c2cc(C(F)F)c3cn[nH]c3n2)ccc1N [Compound 75, 2-Amino-5-[4-(difluoromethyl)-1H-pyrazolo[3,4-b]pyridin-6-yl]benzonitrile]",0.01,,
249,"Cn1cc2c(C(F)(F)F)cc(-c3ccc(N)c(C#N)c3)nc2n1 [Compound 114, 2-Amino-5-[2-methyl-4-(trifluoromethyl)-2H-pyrazolo[3,4-b]pyridin-6-yl]benzonitrile]",0.003,,
295,"Cn1nc2nc(-c3ccc(N)c(C#N)c3)cc(C(F)(F)F)c2c1-c1ccccc1 [Compound 108, 2-Amino-5-[2-methyl-3-phenyl-4-(trifluoromethyl)-2H-pyrazolo[3,4-b]pyridin-6-yl]benzonitrile]",0.003,,
251,"Cn1ncc2c(C(F)F)cc(-c3ccc(N)c(C#N)c3)nc21 [Compound 72, 2-Amino-5-[4-(difluoromethyl)-1-methyl-1H-pyrazolo[3,4-b]pyridin-6-yl]benzonitrile]",0.01,,
296,"N#Cc1cc(-c2cc(C(F)F)c3c(-c4cccnc4)n[nH]c3n2)ccc1N [Compound 91, 2-Amino-5-[4-(difluoromethyl)-3-(pyridin-3-yl)-1H-pyrazolo[3,4-b]pyridin-6-yl]benzonitrile]",0.3,,
276,"Cn1ncc2c(C(F)(F)F)cc(-c3ccc(N)c(C#N)c3)nc21 [Compound 88, 2-Amino-5-[1-methyl-4-(trifluoromethyl)-1H-pyrazolo[3,4-b]pyridin-6-yl]benzonitrile]",0.003,,
227,"CN(C)c1ccc(-c2cc(C(F)(F)F)c3c(-c4ccccc4)n[nH]c3n2)cc1 [Compound 61, N,N-Dimethyl-4-[3-phenyl-4-(trifluoromethyl)-1H-pyrazolo[3,4-b]pyridin-6-yl]aniline]",0.001,,
